Experimental data published in patent US11312723B2, “Pyranopyrazole and pyrazolopyridine immunomodulators for treatment of autoimmune diseases” (The Rockefeller University, priority 2017, dated 2022).

Key:
Human FXIIa = Human FXIIa (Homo sapiens (Human), UniProt P00748); test: Factor XIIa (FXIIa) inhibitory activity, chromogenic substrate (Pefachrome XIIa) cleavage; format: biochemical; conditions: 10 min pre-incubation, Pefachrome XIIa 400 μM
Human alpha-thrombin = Human alpha-thrombin (Homo sapiens (Human), UniProt P00734); test: Thrombin counterscreen for selectivity, fluorogenic substrate cleavage; format: biochemical; conditions: 10 min pre-incubation, Boc-Val-Pro-Arg-AMC 20 μM
[1] = tested on: Collagen-Induced Arthritis (CIA) in DBA/1 Mice; test: Collagen-Induced Arthritis (CIA) in DBA/1 mice, model of rheumatoid arthritis; format: in vivo, mouse
Description: For in vivo confirmation of efficacy, Example 35 was studied in a model of rheumatoid arthritis. Collagen-Induced Arthritis (CIA) in DBA/1 Mice is one of the most commonly used animal models of human rheumatoid arthritis. The joint inflammation which develops in CIA resembles inflammation in human patients with rheumatoid arthritis. Therapeutic agents that reduce rheumatoid arthritis in people (e.g. NSAIDs, corticosteroids, methotrexate, etc) are also efficacious in CIA, and efficacy in the mouse CIA model has excellent predictive value for efficacy in rheumatoid arthritis. CIA is induced by immunization with type II collagen emulsified in Complete Freund's Adjuvant, followed by a booster immunization with type II collagen emulsified in incomplete Freund's Adjuvant. Three to four weeks after immunization, inflammation develops in mouse paws, Treatment is initiated at, the time of immunization and continues for 6 weeks. […] CIA is scored blind, by a person unaware of both treatment and of previous scores for each animal. The animal's score is the total of all four paw scores on scale of 0-16, where each paw is scored as follows: 0 Normal paw; 1 One toe inflamed and swollen; 2 More than one toe, but not entire paw, inflamed and swollen, or mild swelling of entire paw; 3 Entire paw inflamed and swollen; 4 Very inflamed and swollen paw or ankylosed paw.

Sequence of Human FXIIa (P00748 373-615): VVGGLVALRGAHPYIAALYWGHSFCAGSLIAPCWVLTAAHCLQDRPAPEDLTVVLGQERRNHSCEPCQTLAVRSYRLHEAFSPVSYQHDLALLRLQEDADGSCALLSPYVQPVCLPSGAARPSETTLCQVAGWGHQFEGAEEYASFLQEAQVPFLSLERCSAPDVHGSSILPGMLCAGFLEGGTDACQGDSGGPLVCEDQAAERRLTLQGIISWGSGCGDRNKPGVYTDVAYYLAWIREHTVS
Sequence of Human FXIIa (P00748 20-372 partner): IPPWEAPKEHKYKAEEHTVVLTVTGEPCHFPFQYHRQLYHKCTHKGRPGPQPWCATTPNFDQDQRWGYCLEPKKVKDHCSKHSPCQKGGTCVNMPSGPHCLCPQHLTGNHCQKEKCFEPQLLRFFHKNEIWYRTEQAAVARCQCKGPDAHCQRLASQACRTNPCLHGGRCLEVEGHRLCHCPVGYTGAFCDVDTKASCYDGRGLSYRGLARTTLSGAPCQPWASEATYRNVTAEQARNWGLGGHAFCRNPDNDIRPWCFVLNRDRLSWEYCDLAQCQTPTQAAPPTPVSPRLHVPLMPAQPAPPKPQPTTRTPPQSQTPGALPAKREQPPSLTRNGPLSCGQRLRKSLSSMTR

Structure (SMILES)	IC50 (Human FXIIa) [µM]	IC50 (Human alpha-thrombin) [µM]	Effect on disease phenotype compared to placebo ([1]; CIA model)	Maximum CIA score ± SD ([1]; scale 0-16, p value 0.0175 vs vehicle)
CNC(=O)N1CCc2c(N)nn(C(=O)C3CCNc4ccccc43)c2C1 (centres unmarked) [Example 113, 3-amino-N-methyl-1-(1,2,3,4-tetrahydro-quinoline-4-carbonyl)-4,5-dihydro-1H-pyrazolo[3,4-c]pyridine-6(7H)-carboxamide]	95	> 100		
CCN1CCc2c(N)nn(C(=O)C3CCNc4ccccc43)c2C1 (centres unmarked) [Example 21, (3-amino-6-ethyl-4,5,6,7-tetrahydropyrazolo[3,4-c]pyridin-1-yl)(1,2,3,4-tetrahydroquinolin-4-yl)methanone]	1.5	> 50		
CS(=O)(=O)N1CCc2c(N)nn(C(=O)C3CCNc4ccc(Cl)cc43)c2C1 (centres unmarked) [Example 15, (3-amino-6-(methylsulfonyl)-4,5,6,7-tetrahydropyrazolo[3,4-c]pyridin-1-yl)(6-chloro-1,2,3,4-tetrahydroquinolin-4-yl)methanone]	> 65	> 70		
CC(C)C(=O)N1CCc2c(nn(C(=O)C3CCNc4ccccc43)c2N)C1 (centres unmarked) [Example 121, 1-(3-amino-2-(1,2,3,4-tetrahydro-quinoline-4-carbonyl)-4,5-dihydro-2H-pyrazolo[3,4-c]pyridin-6(7H)-yl)-2-methylpropan-1-one]	0.4	> 80		
CNS(=O)(=O)N1CCc2c(N)nn(C(=O)C3CCNc4ccccc43)c2C1 (centres unmarked) [Example 112, 3-amino-N-methyl-1-(1,2,3,4-tetrahydro-quinoline-4-carbonyl)-4,5-dihydro-1H-pyrazolo[3,4-c]pyridine-6(7H)-sulfonamide]	> 70	> 70		
CS(=O)(=O)N1CCc2c(N)nn(C(=O)C3CCNc4ccc(C(F)(F)F)cc43)c2C1 (centres unmarked) [Example 25, (3-amino-6-(methylsulfonyl)-4,5,6,7-tetrahydropyrazolo[3,4-c]pyridin-1-yl)(6-(trifluoromethyl)-1,2,3,4-tetrahydroquinolin-4-yl)methanone]	40	> 70		
Nc1c2c(nn1C(=O)C1CCNc3ccc(F)cc31)CN(c1ccccn1)CC2 (centres unmarked) [Example 167, (3-amino-6-(pyridin-2-yl)-4,5,6,7-tetrahydro-pyrazolo[3,4-c]pyridin-2-yl)(6-fluoro-1,2,3,4-tetrahydro-quinolin-4-yl)methanone]	60	> 120		
COC(=O)N1CCc2c(nn(C(=O)C3CCNc4ccccc43)c2N)C1 (centres unmarked) [Example 114, methyl 3-amino-2-(1,2,3,4-tetrahydro-quinoline-4-carbonyl)-4,5-dihydro-2H-pyrazolo[3,4-c]pyridine-6(7H)-carboxylate]	0.45	> 80		
CC(=O)N1CCc2nn(C(=O)C3CCNc4ccccc43)c(N)c2C1 (centres unmarked) [Example 95, 1-(3-amino-2-(1,2,3,4-tetrahydro-quinoline-4-carbonyl)-6,7-dihydro-2H-pyrazolo[4,3-c]pyridin-5(4H)-yl)ethanone]	0.7	> 50		
CCS(=O)(=O)N1CCc2c(N)nn(C(=O)C3CCNc4ccccc43)c2C1 (centres unmarked) [Example 126, (3-amino-6-(ethylsulfonyl)-4,5,6,7-tetrahydro-pyrazolo[3,4-c]pyridin-1-yl)(1,2,3,4-tetrahydro-quinolin-4-yl)methanone]	32	> 70		
CN1CCc2nn(C(=O)C3CCCc4[nH]c(Cl)cc43)c(N)c2C1 (centres unmarked) [Example 3, (3-amino-5-methyl-4,5,6,7-tetrahydropyrazolo[4,3-c]pyridin-2-yl)(2-chloro-4,5,6,7-tetrahydro-1H-indol-4-yl)methanone]	0.35	> 35		

Second part, led by results:

IC50 (Human FXIIa) [µM]	IC50 (Human alpha-thrombin) [µM]	Structure (SMILES)	Effect on disease phenotype compared to placebo ([1]; CIA model)	Maximum CIA score ± SD ([1]; scale 0-16, p value 0.0175 vs vehicle)
0.04	> 50	CC(=O)N1CCc2c(nn(C(=O)c3cccc4[nH]c(C)cc34)c2N)C1 [Example 99, 1-(3-amino-2-(2-methyl-1H-indole-4-carbonyl)-4,5-dihydro-2H-pyrazolo[3,4-c]pyridin-6(7H)-yl)ethanone]		
0.02	15	Cc1cc(F)cc2c1NCCC2C(=O)n1nc2c(c1N)CCN(S(C)(=O)=O)C2 (centres unmarked) [Example 51, (3-amino-6-(methylsulfonyl)-4,5,6,7-tetrahydropyrazolo[3,4-c]pyridin-2-yl)(6-fluoro-8-methyl-1,2,3,4-tetrahydroquinolin-4-yl)methanone]		
0.35	> 80	CN(C)C(=O)N1CCc2c(nn(C(=O)C3CCNc4ccccc43)c2N)C1 (centres unmarked) [Example 123, 3-amino-N,N-dimethyl-2-(1,2,3,4-tetrahydro-quinoline-4-carbonyl)-4,5-dihydro-2H-pyrazolo[3,4-c]pyridine-6(7H)-carboxamide]		
0.15	> 70	CS(=O)(=O)N1CCc2c(nn(C(=O)C3CCNc4c3cccc4C(F)(F)F)c2N)C1 (centres unmarked) [Example 67, (3-amino-6-(methylsulfonyl)-4,5,6,7-tetrahydropyrazolo[3,4-c]pyridin-2-yl)(8-(trifluoromethyl)-1,2,3,4-tetrahydroquinolin-4-yl)methanone]		
0.02	18	Cc1cccc2c1NCCC2C(=O)n1nc2c(c1N)CCN(S(C)(=O)=O)C2 (single isomer, unassigned) [Example 35, (S*)-(3-amino-6-(methylsulfonyl)-4,5,6,7-tetrahydropyrazolo[3,4-c]pyridine-2-yl)(8-methyl-1,2,3,4-tetrahydroquinolin-4-yl)methanone]	significantly ameliorated the disease phenotype compared to placebo	5.6 ± 3.7
0.15	4.5	Cn1cc2c(c1)C(C(=O)n1nc3c(c1N)CCN(S(C)(=O)=O)C3)CCC2 (centres unmarked) [Example 26, (3-amino-6-(methylsulfonyl)-4,5,6,7-tetrahydropyrazolo[3,4-c]pyridin-2-yl)(2-methyl-4,5,6,7-tetrahydro-2H-isoindol-4-yl)methanone]		
0.3	> 55	Cc1ccc2c(c1)C(C(=O)n1nc3c(c1N)CCN(S(C)(=O)=O)C3)CCN2 (centres unmarked) [Example 12, (3-amino-6-(methylsulfonyl)-4,5,6,7-tetrahydropyrazolo[3,4-c]pyridin-2-yl)(6-methyl-1,2,3,4-tetrahydroquinolin-4-yl)methanone]		
0.05	22	CCc1ccc2c(c1)C(C(=O)n1nc3c(c1N)CCN(S(C)(=O)=O)C3)CCN2 (centres unmarked) [Example 30, (3-amino-6-(methylsulfonyl)-4,5,6,7-tetrahydropyrazolo[3,4-c]pyridin-2-yl)(6-ethyl-1,2,3,4-tetrahydroquinolin-4-yl)methanone]		
0.1	25	CS(=O)(=O)N1CCc2c(nn(C(=O)C3CCNc4ccc(C(F)(F)F)cc43)c2N)C1 (centres unmarked) [Example 24, (3-amino-6-(methylsulfonyl)-4,5,6,7-tetrahydropyrazolo[3,4-c]pyridin-2-yl)(6-(trifluoromethyl)-1,2,3,4-tetrahydroquinolin-4-yl)methanone]		
0.02	> 100	CCN1CCc2c(nn(C(=O)[C@H]3CCNc4c(C)cccc43)c2N)C1 (single isomer, unassigned) [Example 173, (S*)-(3-amino-6-ethyl-4,5,6,7-tetrahydro-pyrazolo[3,4-c]pyridin-2-yl)(8-methyl-1,2,3,4-tetrahydroquinolin-4-yl)methanone]		
